Where a name gives a salt, the structure may show the parent alone.
Legend:
Assay type in all cases: biochemical
[1] = target: T1, α-D-galactosidase (green coffee bean) (Coffea arabica, UniProt Q42656); experiment: Glycosidase assay, α-D-galactosidase (green coffee bean); conditions: % inhibition; for α-D-galactosidase coffee bean: Table 6, concentration not given (method: 10 mg/ml solution)
T1 construct: purchased Sigma-Aldrich
Experimental: (§1) The assays used p-nitrophenyl-substrates and commercial enzymes purchased from Sigma-Aldrich. Enzymes were assayed at 27° C. in 0.1M citric acid/0.2M disodium hydrogen phosphate buffers at the optimum pH for the enzyme. The incubation mixture consisted of 10 μl enzyme solution, 10 μl of 10 mg/ml aqueous solution of extract and 50 μl of the appropriate 5 mM p-nitrophenyl substrate made up in buffer at the optimum pH for the enzyme. The reactions were stopped by addition of 70 μl 0.4M glycine (pH 10.4) during the exponential phase of the reaction, which had been determined at the beginning using uninhibited assays in which water replaced mulberry fractions. Final absorbances were read at 405 nm using a Versamax microplate reader (Molecular Devices). Assays were carried out in triplicate, and the values given are means of the three replicates per assay. Results are expressed as % inhibition.
(§2) Substrates are 10 mM p-nitrophenyl-glycopyranosides. Enzymes are purchased from Sigma and run at the pH optima

[2] = target: T2, amyloglucosidase (A. niger) (Aspergillus niger, UniProt P69328); experiment: Glycosidase assay, amyloglucosidase (A. niger); conditions: % inhibition; for amyloglucosidase A. niger: Table 6, concentration not given (method: 10 mg/ml solution)
T2 construct: purchased Sigma-Aldrich
T2 sequence (P69328 25-640): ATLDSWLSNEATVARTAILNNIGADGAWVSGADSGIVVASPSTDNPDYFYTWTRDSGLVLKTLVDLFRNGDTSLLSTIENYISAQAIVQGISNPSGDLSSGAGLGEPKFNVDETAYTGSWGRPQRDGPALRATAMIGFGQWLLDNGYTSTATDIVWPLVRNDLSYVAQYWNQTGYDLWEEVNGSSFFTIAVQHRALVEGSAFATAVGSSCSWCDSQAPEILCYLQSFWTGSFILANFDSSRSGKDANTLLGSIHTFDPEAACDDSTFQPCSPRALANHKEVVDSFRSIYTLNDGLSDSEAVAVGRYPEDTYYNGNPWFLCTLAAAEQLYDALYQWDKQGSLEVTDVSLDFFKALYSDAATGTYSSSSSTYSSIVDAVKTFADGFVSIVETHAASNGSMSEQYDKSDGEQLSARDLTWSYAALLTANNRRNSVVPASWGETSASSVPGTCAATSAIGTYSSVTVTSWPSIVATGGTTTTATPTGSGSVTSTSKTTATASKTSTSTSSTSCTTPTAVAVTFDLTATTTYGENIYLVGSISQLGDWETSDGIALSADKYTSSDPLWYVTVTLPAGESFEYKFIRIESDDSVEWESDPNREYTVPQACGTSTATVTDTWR
Experimental: as §1, §2

[3] = target: T3, β-D-galactosidase (bovine) (Bos taurus, UniProt Q58D55); experiment: Glycosidase assay, β-D-galactosidase (bovine)
T3 construct: purchased Sigma-Aldrich
T3 sequence (Q58D55 28-653): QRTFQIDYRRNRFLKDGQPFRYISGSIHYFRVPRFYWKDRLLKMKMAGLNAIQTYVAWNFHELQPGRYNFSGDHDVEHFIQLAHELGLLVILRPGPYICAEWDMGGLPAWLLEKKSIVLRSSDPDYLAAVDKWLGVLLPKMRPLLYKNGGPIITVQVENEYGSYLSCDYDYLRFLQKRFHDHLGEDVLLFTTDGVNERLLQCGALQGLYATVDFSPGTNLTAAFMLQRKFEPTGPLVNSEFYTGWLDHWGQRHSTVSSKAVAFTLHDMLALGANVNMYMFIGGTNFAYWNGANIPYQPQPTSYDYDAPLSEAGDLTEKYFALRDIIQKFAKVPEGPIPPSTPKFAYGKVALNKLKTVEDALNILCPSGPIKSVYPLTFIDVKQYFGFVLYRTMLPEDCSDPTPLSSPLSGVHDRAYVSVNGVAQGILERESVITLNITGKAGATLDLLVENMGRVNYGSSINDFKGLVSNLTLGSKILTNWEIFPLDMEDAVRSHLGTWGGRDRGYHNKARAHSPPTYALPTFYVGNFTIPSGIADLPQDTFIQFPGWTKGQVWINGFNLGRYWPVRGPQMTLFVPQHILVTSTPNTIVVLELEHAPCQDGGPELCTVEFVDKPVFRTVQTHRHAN
Experimental: as §1, §2

glycogen phosphorylase = experiment: Glycogen phosphorylase assay; conditions: for GP Inhibition (%): at 400 μM; for glycogen phosphorylase inhibition: words, no concentration
[4] = test system: naringinase (P. decumbens); experiment: Glycosidase assay, naringinase (P. decumbens); conditions: % inhibition
Experimental: as §1, §2

α-D-glucosidase (rice) = target: T4, α-D-glucosidase (rice) (Oryza sativa subsp. japonica, UniProt Q653V7); experiment: Glycosidase assay, α-D-glucosidase (rice)
T4 construct: purchased Sigma-Aldrich
T4 sequence (Q653V7 34-885): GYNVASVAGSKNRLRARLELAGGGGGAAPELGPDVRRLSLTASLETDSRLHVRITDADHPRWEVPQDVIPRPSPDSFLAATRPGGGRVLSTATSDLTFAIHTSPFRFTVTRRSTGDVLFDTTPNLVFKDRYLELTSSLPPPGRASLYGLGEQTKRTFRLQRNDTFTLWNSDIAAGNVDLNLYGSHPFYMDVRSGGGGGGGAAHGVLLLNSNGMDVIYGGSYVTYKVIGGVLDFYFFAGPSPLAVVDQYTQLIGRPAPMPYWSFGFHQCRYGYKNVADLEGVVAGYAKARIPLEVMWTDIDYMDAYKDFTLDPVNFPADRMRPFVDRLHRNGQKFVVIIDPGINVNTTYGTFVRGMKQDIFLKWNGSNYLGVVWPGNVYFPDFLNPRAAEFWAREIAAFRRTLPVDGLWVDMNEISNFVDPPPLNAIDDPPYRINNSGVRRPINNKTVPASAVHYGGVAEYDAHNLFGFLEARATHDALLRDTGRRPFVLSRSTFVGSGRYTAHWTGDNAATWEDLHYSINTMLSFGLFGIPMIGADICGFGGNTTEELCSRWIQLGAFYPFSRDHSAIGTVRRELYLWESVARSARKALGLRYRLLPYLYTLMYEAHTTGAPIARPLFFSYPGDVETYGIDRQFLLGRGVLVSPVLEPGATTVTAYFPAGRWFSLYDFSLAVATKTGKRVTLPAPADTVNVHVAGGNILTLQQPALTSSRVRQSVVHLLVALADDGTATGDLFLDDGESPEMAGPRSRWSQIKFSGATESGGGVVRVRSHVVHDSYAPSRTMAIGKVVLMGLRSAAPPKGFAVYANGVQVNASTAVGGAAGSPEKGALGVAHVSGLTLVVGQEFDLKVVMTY
Experimental: as §1, §2

α-D-glucosidase (Yeast) = target: T5, α-D-glucosidase (Yeast) (Saccharomyces cerevisiae, UniProt P53341); experiment: Glycosidase assay, α-D-glucosidase (Yeast)
T5 construct: purchased Sigma-Aldrich
T5 sequence (P53341 whole entry): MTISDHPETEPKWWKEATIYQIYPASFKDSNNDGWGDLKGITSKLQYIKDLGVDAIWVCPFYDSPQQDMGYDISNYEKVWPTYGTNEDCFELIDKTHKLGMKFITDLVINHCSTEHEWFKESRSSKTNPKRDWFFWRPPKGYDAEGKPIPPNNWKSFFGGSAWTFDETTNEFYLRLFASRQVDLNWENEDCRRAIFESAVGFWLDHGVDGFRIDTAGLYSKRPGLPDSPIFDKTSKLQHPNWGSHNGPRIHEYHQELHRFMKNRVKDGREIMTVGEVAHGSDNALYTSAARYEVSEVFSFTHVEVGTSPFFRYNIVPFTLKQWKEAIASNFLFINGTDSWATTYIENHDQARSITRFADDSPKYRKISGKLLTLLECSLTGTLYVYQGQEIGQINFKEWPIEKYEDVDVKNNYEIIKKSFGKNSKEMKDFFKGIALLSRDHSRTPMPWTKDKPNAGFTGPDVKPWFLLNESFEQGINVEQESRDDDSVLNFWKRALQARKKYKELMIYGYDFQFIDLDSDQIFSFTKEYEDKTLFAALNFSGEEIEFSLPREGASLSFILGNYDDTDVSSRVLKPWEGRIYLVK
Experimental: as §1, §2

[5] = test system: N-acetyl-β-D-gluc (Bovine kidney); experiment: Glycosidase assay, N-acetyl-β-D-gluc (Bovine kidney)
Experimental: as §1, §2

[6] = test system: N-acetyl-β-D-gluc (Jack bean); experiment: Glycosidase assay, N-acetyl-β-D-gluc (Jack bean)
Experimental: as §1, §2

[7] = target: T6, β-glucuronidase (bovine liver) (Bos taurus, UniProt A3KMY8); experiment: Glycosidase assay, β-glucuronidase (bovine liver); conditions: Table 6; % inhibition; concentration not given (method: 10 mg/ml solution)
T6 construct: purchased Sigma-Aldrich; host or cells: bovine liver
T6 sequence (A3KMY8 1-652): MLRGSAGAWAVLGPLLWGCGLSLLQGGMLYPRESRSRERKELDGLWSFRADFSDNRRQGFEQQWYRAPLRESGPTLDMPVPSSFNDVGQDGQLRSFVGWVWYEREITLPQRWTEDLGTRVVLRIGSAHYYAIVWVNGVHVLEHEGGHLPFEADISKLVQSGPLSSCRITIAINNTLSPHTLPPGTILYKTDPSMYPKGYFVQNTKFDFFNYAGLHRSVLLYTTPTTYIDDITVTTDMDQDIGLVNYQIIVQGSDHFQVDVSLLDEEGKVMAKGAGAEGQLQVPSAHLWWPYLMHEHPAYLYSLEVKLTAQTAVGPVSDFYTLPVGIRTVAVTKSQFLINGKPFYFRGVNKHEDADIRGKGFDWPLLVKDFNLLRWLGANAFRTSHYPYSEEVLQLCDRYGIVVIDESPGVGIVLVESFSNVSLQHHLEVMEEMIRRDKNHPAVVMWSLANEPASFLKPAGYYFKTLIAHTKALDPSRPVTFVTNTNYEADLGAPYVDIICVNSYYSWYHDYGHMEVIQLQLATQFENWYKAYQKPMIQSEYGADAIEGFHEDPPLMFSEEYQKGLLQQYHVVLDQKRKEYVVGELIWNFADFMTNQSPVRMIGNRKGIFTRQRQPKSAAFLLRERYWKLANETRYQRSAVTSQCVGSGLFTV
Experimental: as §1, §2

[8] = test system: β-D-mannosidase Cellulomonas fimi; experiment: Glycosidase assay, β-D-mannosidase (Cellulomonas fimi); conditions: % inhibition; for β-D-mannosidase Cellulomonas fimi: Table 6, concentration not given (method: 10 mg/ml solution)
Experimental: as §1

[9] = test system: α-D-glucosidase (Bacillus); experiment: Glycosidase assay, α-D-glucosidase (Bacillus)
Experimental: as §1, §2

[10] = target: T7, α-D-mannosidase (Jack bean) (Canavalia ensiformis, UniProt C0HJB3); experiment: Glycosidase assay, α-D-mannosidase (Jack bean); conditions: % inhibition
T7 construct: purchased Sigma-Aldrich
T7 sequence (C0HJB3 1-562 limits assumed): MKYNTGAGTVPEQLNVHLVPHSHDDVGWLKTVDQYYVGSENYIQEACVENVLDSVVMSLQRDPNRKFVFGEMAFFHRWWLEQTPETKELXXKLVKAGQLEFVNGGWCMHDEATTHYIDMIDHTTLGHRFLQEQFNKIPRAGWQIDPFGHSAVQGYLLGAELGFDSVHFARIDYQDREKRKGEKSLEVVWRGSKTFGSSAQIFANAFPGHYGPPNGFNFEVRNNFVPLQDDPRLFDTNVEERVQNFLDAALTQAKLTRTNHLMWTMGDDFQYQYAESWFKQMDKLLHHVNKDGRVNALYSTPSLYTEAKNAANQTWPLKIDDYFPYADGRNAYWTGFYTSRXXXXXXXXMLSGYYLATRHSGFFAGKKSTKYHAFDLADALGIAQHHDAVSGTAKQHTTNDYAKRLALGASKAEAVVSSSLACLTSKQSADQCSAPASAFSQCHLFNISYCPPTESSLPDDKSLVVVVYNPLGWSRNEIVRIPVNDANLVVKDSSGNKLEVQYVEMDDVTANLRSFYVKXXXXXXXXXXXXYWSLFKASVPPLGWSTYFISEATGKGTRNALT
Experimental: as §1, with “The reactions were stopped by addition of 70 μl 0.4M glycine (pH 10.4) during the exponential phase of the reaction, which had been determined at the beginning using uninhibited assays in which water replaced mulberry fractions.” left out
as §2

β-D-glucosidase (almond) = experiment: Glycosidase assay, β-D-glucosidase (almond)
Experimental: as §1, §2

β-D-glucosidase (yeast) = experiment: Glycosidase assay, β-D-glucosidase (yeast); conditions: Table 16; % inhibition; concentration not given
Experimental: as §1

α-L-fucosidase (bovine) = target: T8, α-L-fucosidase (bovine) (Bos taurus, UniProt Q2KIM0); experiment: Glycosidase assay, α-L-fucosidase (bovine); conditions: Table 16; % inhibition; concentration not given
T8 construct: purchased Sigma-Aldrich
T8 sequence (Q2KIM0 23-468): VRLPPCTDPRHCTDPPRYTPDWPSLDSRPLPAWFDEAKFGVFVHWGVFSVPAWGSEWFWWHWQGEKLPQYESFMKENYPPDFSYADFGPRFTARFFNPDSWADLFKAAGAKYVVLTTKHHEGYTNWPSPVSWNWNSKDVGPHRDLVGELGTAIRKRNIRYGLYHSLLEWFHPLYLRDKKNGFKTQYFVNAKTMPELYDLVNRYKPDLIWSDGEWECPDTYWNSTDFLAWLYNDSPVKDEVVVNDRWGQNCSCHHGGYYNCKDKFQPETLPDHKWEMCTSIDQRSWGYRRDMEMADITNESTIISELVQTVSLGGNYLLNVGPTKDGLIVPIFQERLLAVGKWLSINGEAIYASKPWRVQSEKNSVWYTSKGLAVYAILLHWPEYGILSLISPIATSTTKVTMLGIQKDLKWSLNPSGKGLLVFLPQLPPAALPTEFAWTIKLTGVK
Experimental: as §1

[11] = Table 6, % inhibition, concentration not given (method: 10 mg/ml solution)
[12] = Table 6, concentration not given (method: 10 mg/ml solution)
[13] = Table 9, sugar fractions, 10 mM p-nitrophenyl substrate, concentration given only for sucrose (10 mg/ml)
[14] = Table 16, concentration not given
[15] = Table 16, % inhibition, concentration not given

T1 sequence (Q42656 16-378): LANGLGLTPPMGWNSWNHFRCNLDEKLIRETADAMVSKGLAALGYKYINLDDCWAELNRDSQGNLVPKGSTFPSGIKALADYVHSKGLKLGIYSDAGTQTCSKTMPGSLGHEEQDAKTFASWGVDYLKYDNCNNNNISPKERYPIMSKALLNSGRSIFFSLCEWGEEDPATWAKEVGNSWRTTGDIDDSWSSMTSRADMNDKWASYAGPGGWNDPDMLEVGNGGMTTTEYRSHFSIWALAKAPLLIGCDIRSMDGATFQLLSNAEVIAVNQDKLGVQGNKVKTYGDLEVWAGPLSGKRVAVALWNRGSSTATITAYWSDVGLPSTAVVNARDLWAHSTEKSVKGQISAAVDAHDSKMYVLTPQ

Row | SMILES | α-D-galactosidase coffee bean [1] [%] | amyloglucosidase A. niger [2] [%] | β-D-galactosidase (Bovine) [3, 11] [%] | GP Inhibition (%) (glycogen phosphorylase) | Naringinase (P. decumbens) [4, 12] [%] | α-D-glucosidase (Rice) (α-D-glucosidase (rice); [11]) [%] | α-D-glucosidase (Yeast) (α-D-glucosidase (Yeast); [11]) [%] | N-acetyl-β-D-gluc (Bovine kidney) [5, 11] [%] | N-acetyl-β-D-gluc Jack bean [6, 11] [%] | β-glucuronidase bovine liver [7] [%] | β-D-mannosidase Cellulomonas fimi [8] [%] | α-D-glucosidase (Bacillus) [9, 11] [%] | α-D-mannosidase (Jack bean) [10, 12] [%] | β-D-glucosidase almond (β-D-glucosidase (almond); [11]) [%] | glycogen phosphorylase inhibition (glycogen phosphorylase) | further results
1 | C[n+]1cc(C(=O)[O-])ccc1O [6OH trig, 6-hydroxytrigonelline] | −16 | 0 | 8 | 11.9 | 0 | 0 | 0 | 12 | −11 | 0 | 0 | −36 | 0 | 0 |  | 
2 | OC[C@H]1O[C@@](CO)(O[C@H]2O[C@H](CO)[C@@H](O)[C@H](O)[C@H]2O)[C@@H](O)[C@@H]1O [sucrose] |  |  |  |  |  |  |  |  |  |  |  |  |  |  | do not inhibit | β-D-galactosidase (Bovine) [3, 13]: 0 % inhibition; α-D-glucosidase (Rice) (α-D-glucosidase (rice); [13]): 0 % inhibition; α-D-glucosidase (Yeast) (α-D-glucosidase (Yeast); [13]): 0 % inhibition; N-acetyl-β-D-gluc (Bovine kidney) ([5]; Table 9, sucrose 10 mg/ml): 0 % inhibition; N-acetyl-β-D-gluc Jack bean [6, 13]: 0 % inhibition; α-D-glucosidase (Bacillus) [9, 13]: −7 % inhibition; β-D-glucosidase almond (β-D-glucosidase (almond); [13]): 0 % inhibition
3 | OC[C@H]1NC[C@@H](O)[C@@H]1O [DAB, 1,4-dideoxy-1,4-imino-D-arabinitol] |  |  |  |  |  |  |  |  |  |  |  |  |  |  |  | α-D-galactosidase (Green coffee beans) [1, 14]: 7%; Amyloglucosidase [2, 14]: 47%; β-D-galactosidase (Bovine) [3, 15]: 100%; Naringinase (P. decumbens) [4, 14]: 3%; α-D-glucosidase (Rice) (α-D-glucosidase (rice); [15]): 100%; α-D-glucosidase (Yeast) (α-D-glucosidase (Yeast); [15]): 100%; β-D-glucosidase (yeast) (β-D-glucosidase (yeast)): 100%; N-acetyl-β-D-gluc (Bovine kidney) [5, 15]: −8%; α-L-fucosidase (Bovine) (α-L-fucosidase (bovine)): 5%; β-D-mannosidase (C. fimi) [8, 14]: 95%; α-D-glucosidase (Bacillus) [9, 15]: 93%; α-D-mannosidase (Jack bean) [10, 14]: 3%
4 | OC[C@H]1NCC[C@@H](O)[C@@H]1O [fagomine, Fagomine] |  |  |  |  |  |  |  |  |  |  |  |  |  |  | do not inhibit | 
5 | C[n+]1cccc(C(=O)[O-])c1 [trigonellin HCl, trigonelline] | 0 | 0 | 0 | 6.9 | 0 | 0 | 0 | −8 | 0 | 0 | 0 | −12 | 0 | 0 | not greatly inhibitory | 
6 | O=C(O)[C@@H]1CC[C@@H](O)CN1 [drawing 7] |  |  |  | 0 |  |  |  |  |  |  |  |  |  |  |  | 
7 | O=C(O)[C@@H]1CC[C@@H](O)CN1 [compound 900439] | −6 | 0 | 0 |  | −6 | 0 | 0 | 9 | 8 | 0 | 0 | 0 | 0 | 0 |  | 
